Experiments:
MCF7 ESR1 wild type = experiment: Cell proliferation assay in MCF7; format: cell-based; settings: Homo sapiens, seven days, n=2, read-out: Relative IC50 (nM), cell proliferation
Excerpt: The purpose of the following cell proliferation assays generally is to detect whether a test compound has effects on cell proliferation, cell viability, and cytotoxicity in response to treatment in cell culture experiments. Cell proliferation is monitored by monitoring the number of cells over time and the […] assay used allows continuous measurement of cell viability over time.
Seed MCF7 (purchased from ATCC HTB-22) cells at a density of 2,000 cells per well in DMEM phenol red free media 10% FBS (20 μL volume) (charcoal stripped) into a clear bottom 384-well cell culture plate. […] Scan the plates with ACUMEN EXPLORER™ [Laser-scanning fluorescence microplate cytometer manufactured by TTP LABTECH LTD]. The MCF-7 cell line grows forming aggregates, cell number as number of objects may not be able to be used as readout; so the cell number may be evaluated through estimated number of cells (calculated through the area parameter (ratio of total area of the total cells population (a designated range of peak intensity of FL-1 (PI) and the mean area of the single cells population (defined by perimeter)). Determine the IC50 by curve fitting to a four parameter logistic for each output using GENE DATA™.

[1] = tested on: PGR (Progesterone Receptor alpha) gene expression; experiment: In vivo target inhibition (IVTI) assay (PGR RT-qPCR) in MCF7 tumors; design: species or system mice; settings: MCF7 tumor xenograft, 30 mg/kg orally, 24 hours
Procedure: The purpose of this IVTI assay is to measure the ability of a test compound (SERD) to inhibit PGR (Progesterone Receptor alpha) gene expression (transcription) downstream of ERα in xenograft tumors implanted in mice.
Implant female NOD SCID mice (22-25 g) from Envigo RMS, Inc., Madison, Wisconsin with 5×10e^6 MCF7 ER+ve breast cancer cells (ATCC, #HTB-22) subcutaneously in the right flank region in 1:1 HBSS+[…]™ solution (200 μL). Implant a […] pellet (0.18 mg/pellet, 90 day release, from Innovative research) subcutaneously 1 day prior to tumor cell implantation. […] Sacrifice animals using isoflurane anesthesia plus cervical dislocation. Flash freeze tumors and store at −80° C. until processing for RNA isolation and RT-qPCR assay. Collect blood in EDTA tubes, spin down for plasma, and freeze at −80° C. in a 96-well plate. Determine test compound exposures using mass spectrometry.
Pulverize tumors in liquid nitrogen and lyse in 1×RNA lysis buffer (from RNA isolation kits) using Matrix D beads (MP Biomedical, #6913-500) in a FASTPREP-24™ Cell Disrupter machine (MP Biomedical). […] Measure isolated RNA concentration by diluting samples in RNase free water and measuring the absorbance at 260 nm on a plate reader (SpectraMax190). Subtract the average 260 nm absorbance measurement of the blank (RNase free water only) from the 260 nm measurements of all other RNA samples. […]

IC50 (MCF7 ESR1 wild type): 9.24 ± 1.74 nM
SMILES: O=C(c1ccc(OCCN2CC(CF)C2)cc1)c1c(-c2ccc(C(F)(F)F)cc2F)cnc2cc(O)ccc12 [Example 1, (4-{2-[3-(Fluoromethyl)azetidin-1-yl]ethoxy}phenyl){3-[2-fluoro-4-(trifluoromethyl)phenyl]-7-hydroxyquinolin-4-yl}methanone]
inhibition of PRα (PGR) expression [1]: 57%

From US12128040B2, “Selective estrogen receptor degraders” (Eli Lilly and Company, priority 2018, dated 2024)
